Assay results taken from patent US9834542B2, “LXR modulators” (BRISTOL-MYERS SQUIBB COMPANY, priority 2013, dated 2017).

Biological target: T1, LXRβ (Homo sapiens, UniProt P55055)
T1 construct: Co-transfection expression plasmids, comprising full-length LXRα (pCMX-h LXRα[…] or LXRβ (pCMX-hLXRβ)); expressed in transfected cells; host or cells: CV-1 African Green Monkey Kidney Cells
T1 sequence (P55055 1-460): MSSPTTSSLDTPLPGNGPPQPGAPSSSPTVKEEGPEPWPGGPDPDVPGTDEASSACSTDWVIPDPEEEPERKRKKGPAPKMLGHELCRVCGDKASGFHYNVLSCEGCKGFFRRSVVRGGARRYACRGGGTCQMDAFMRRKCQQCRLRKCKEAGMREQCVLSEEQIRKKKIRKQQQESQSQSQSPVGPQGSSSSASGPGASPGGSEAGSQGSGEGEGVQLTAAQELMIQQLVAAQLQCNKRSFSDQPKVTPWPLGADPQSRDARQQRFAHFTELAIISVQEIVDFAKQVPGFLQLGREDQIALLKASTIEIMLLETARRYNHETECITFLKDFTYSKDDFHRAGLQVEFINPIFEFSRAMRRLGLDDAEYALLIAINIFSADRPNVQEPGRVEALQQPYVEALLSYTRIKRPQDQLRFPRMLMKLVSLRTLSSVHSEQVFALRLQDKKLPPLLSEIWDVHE
T1 sequence (P19793 1-462 partner): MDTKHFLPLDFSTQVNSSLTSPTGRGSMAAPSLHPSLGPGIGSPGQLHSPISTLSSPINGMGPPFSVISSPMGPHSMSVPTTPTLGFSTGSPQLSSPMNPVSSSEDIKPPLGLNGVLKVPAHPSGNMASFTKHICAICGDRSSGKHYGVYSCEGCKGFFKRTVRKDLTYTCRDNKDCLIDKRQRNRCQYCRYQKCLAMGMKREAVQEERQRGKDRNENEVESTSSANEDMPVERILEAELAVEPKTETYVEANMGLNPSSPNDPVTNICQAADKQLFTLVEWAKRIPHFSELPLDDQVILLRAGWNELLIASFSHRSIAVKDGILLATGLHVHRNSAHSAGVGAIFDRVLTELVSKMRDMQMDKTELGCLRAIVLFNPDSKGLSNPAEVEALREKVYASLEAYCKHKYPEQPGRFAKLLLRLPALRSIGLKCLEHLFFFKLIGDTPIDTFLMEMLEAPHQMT
Test: Co-transfection assay (LXRE luciferase reporter), LXRβ
Type: cell-based
Conditions: for EC50: CV-1 cells transfected with pCMX-hLXRβ and LXREx1-Tk-Luciferase, 20 hours incubation; for Emax: LXRβ co-transfection, relative to high control 1-(2,4-difluorobenzyl)-2-oxo-6-(4-phenoxyphenyl)-4-(trifluoromethyl)-1,2-dihydropyridine-3-carbonitrile, read-out: % Efficacy
Outline: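 CV-1 cells transiently co-transfected with full-length human LXRβ (or LXRα), LXREx1-Tk-luciferase reporter and β-galactosidase control; compound added (10 μM final in single-point, 11-point ½-log curves, ≤0.5% DMSO) for 20 h at 37 °C. Luciferase read; EC50 from four-parameter fit, efficacy relative to reference agonist high control.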

| Structure (SMILES) | EC50 [nM] | Emax [%] |
| --- | --- | --- |
| Cc1nc(C(F)(F)F)cn1-c1ccc(-c2cccc(S(C)(=O)=O)c2)cc1-n1nncc1C(C)c1ccc(Cl)cc1 (stereo not shown) [Example 108, 5-[1-(4-chlorophenyl)ethyl]-1-{3′-(methylsulfonyl)-4-[2-methyl-4-(trifluoromethyl)-1H-imidazol-1-yl]biphenyl-3-yl}-1H-1,2,3-triazole] | 149 | 62 |
| Cc1nc(-c2cc(-c3cccc(S(C)(=O)=O)c3)ccc2-n2cc(C(F)(F)F)nc2C)c(-c2ccc(OC(F)F)c(F)c2)o1 [Example 376, 5-(4-(difluoromethoxy)-3-fluorophenyl)-2-methyl-4-(4-(2-methyl-4-(trifluoromethyl)-1H-imidazol-1-yl)-3′-(methylsulfonyl)biphenyl-3-yl)oxazole] | 64 | 84 |
| COc1cc(OC(F)(F)F)ccc1-c1nc(C)oc1-c1cc(-c2cccc(S(C)(=O)=O)c2)ccc1-n1cc(C(F)(F)F)nc1C [Example 637, 4-(2-methoxy-4-(trifluoromethoxy)phenyl)-2-methyl-5-(4-(2-methyl-4-(trifluoromethyl)-1H-imidazol-1-yl)-3′-(methylsulfonyl)-[1,1′-biphenyl]-3-yl)oxazole] | 579 | 40 |
| Cc1nc(-c2cc(-c3cc(F)c(CO)c(S(C)(=O)=O)c3)ccc2-n2cc(C(F)(F)F)nc2C)c(-c2ccc(OC(F)F)c(Cl)c2)o1 [Example 399, (3′-(5-(3-chloro-4-(difluoromethoxy)phenyl)-2-methyloxazol-4-yl)-3-fluoro-4′-(2-methyl-4-(trifluoromethyl)-1H-imidazol-1-yl)-5-(methylsulfonyl)biphenyl-4-yl)methanol] | 28 | 76 |
| Cc1nc(C(F)(F)F)cn1-c1ccc(-c2cccc(S(C)(=O)=O)c2)cc1-c1ccnn1-c1ccc(OC(F)(F)F)cc1 [Example 289, 5-{3′-(methylsulfonyl)-4-[2-methyl-4-(trifluoromethyl)-1H-imidazol-1-yl]biphenyl-3-yl}-1-{4-[(trifluoromethyl)oxy]phenyl}-1H-pyrazole] | 122 | 75 |
| Cc1nc(-c2cc(-c3cccc(S(C)(=O)=O)c3)ccc2-n2cc(C(F)(F)F)nc2C)c(-c2ccc3c(c2)OC(F)(F)O3)o1 [Example 493, 5-(2,2-difluorobenzo[d][1,3]dioxol-5-yl)-2-methyl-4-(4-(2-methyl-4-(trifluoromethyl)-1H-imidazol-1-yl)-3′-(methylsulfonyl)biphenyl-3-yl)oxazole] | 40 | 95 |
| Cc1nc(C(F)(F)F)cn1-c1ccc(-c2cccc(S(C)(=O)=O)c2)cc1-c1nc(C(C)C)oc1-c1ccc(OC(F)(F)F)cc1 [Example 559, 2-isopropyl-4-(4-(2-methyl-4-(trifluoromethyl)-1H-imidazol-1-yl)-3′-(methylsulfonyl)-[1,1′-biphenyl]-3-yl)-5-(4-(trifluoromethoxy)phenyl)oxazole] | 34 | 76 |
| Cc1nc(C(F)(F)F)cn1-c1ccc(-c2cccc(C(C)(C)C(N)=O)c2)cc1-n1nncc1-c1ccc(OC(F)(F)F)cc1 [Example 27, 2-methyl-2-{4′-[2-methyl-4-(trifluoromethyl)-1H-imidazol-1-yl]-3′-(5-{4-[(trifluoromethyl)oxy]phenyl}-1H-1,2,3-triazol-1-yl)biphenyl-3-yl}propanamide] | 561 | 83 |
| Cc1nc(C(F)(F)F)cn1-c1ccc(-c2cccc(S(C)(=O)=O)c2)cc1-n1nncc1Cc1ccc(Cl)c(Cl)c1 [Example 115, 5-[(3,4-dichlorophenyl)methyl]-1-{3′-(methylsulfonyl)-4-[2-methyl-4-(trifluoromethyl)-1H-imidazol-1-yl]biphenyl-3-yl}-1H-1,2,3-triazole] | 920 | 79 |
| Cc1ccc(C(C)c2cnnn2-c2cc(-c3cccc(S(C)(=O)=O)c3)ccc2-n2cc(C(F)(F)F)nc2C)cc1 (stereo not shown) [Example 111, 5-[1-(4-methylphenyl)ethyl]-1-{3′-(methylsulfonyl)-4-[2-methyl-4-(trifluoromethyl)-1H-imidazol-1-yl]biphenyl-3-yl}-1H-1,2,3-triazole] | 930 | 92 |

Next, values leading:

| EC50 [nM] | Emax [%] | Structure (SMILES) |
| --- | --- | --- |
| 281 | 48 | Cc1nc(C(F)(F)F)cn1-c1ccc(-c2cc(F)c(CO)c(S(C)(=O)=O)c2)cc1-n1nncc1C1(c2ccc(Cl)cc2)CC1 [Example 106, (3′-{5-[1-(4-chlorophenyl)cyclopropyl]-1H-1,2,3-triazol-1-yl}-3-fluoro-5-(methylsulfonyl)-4′-[2-methyl-4-(trifluoromethyl)-1H-imidazol-1-yl]biphenyl-4-yl)methanol] |
| 783 | 66 | Cc1nc(C(F)(F)F)cn1-c1ccc(-c2cccc(S(C)(=O)=O)c2)cc1-c1oc(CCO)nc1-c1ccc(Cl)cc1 [Example 618, 2-(4-(4-chlorophenyl)-5-(4-(2-methyl-4-(trifluoromethyl)-1H-imidazol-1-yl)-3′-(methylsulfonyl)-[1,1′-biphenyl]-3-yl)oxazol-2-yl)ethanol] |
| 180 | 110 | Cc1nc(C(F)(F)F)c(Cl)n1-c1ccc(-c2cccc(S(C)(=O)=O)c2)cc1-n1nncc1-c1ccc(OC(F)(F)F)cc1 [Example 55, 1-{4-[5-chloro-2-methyl-4-(trifluoromethyl)-1H-imidazol-1-yl]-3′-(methylsulfonyl)biphenyl-3-yl}-5-{4-[(trifluoromethyl)oxy]phenyl}-1H-1,2,3-triazole] |
| 223 | 110 | Cc1nc(C(F)(F)F)cn1-c1ccc(-c2cc(F)c(CO)c(S(C)(=O)=O)c2)cc1-c1cnnn1-c1ccc(OC(F)(F)F)cc1 [Example 244, [3-fluoro-5-(methylsulfonyl)-4′-[2-methyl-4-(trifluoromethyl)-1H-imidazol-1-yl]-3′-(1-{4-[(trifluoromethyl)oxy]phenyl}-1H-1,2,3-triazol-5-yl)biphenyl-4-yl]methanol] |
| 216 | 43 | Cc1nc(-c2ccccc2OC(F)(F)F)c(-c2cc(-c3cccc(S(C)(=O)=O)c3)ccc2-n2cc(C(F)(F)F)nc2C)o1 [Example 631, 2-methyl-5-(4-(2-methyl-4-(trifluoromethyl)-1H-imidazol-1-yl)-3′-(methylsulfonyl)-[1,1′-biphenyl]-3-yl)-4-(2-(trifluoromethoxy)phenyl)oxazole] |
| 25 | 63 | Cc1nc(-c2cc(-c3cc(F)c(CO)c(S(C)(=O)=O)c3)ccc2-n2cc(C(F)(F)F)nc2C)c(-c2ccc(OC(F)F)cc2Cl)o1 [Example 397, (3′-(5-(2-chloro-4-(difluoromethoxy)phenyl)-2-methyloxazol-4-yl)-3-fluoro-4′-(2-methyl-4-(trifluoromethyl)-1H-imidazol-1-yl)-5-(methylsulfonyl)biphenyl-4-yl)methanol] |
| 447 | 42 | Cc1nc(Cl)cn1-c1ccc(-c2cc(F)c(CO)c(S(C)(=O)=O)c2)cc1-n1nncc1-c1ccc(Cl)cc1 [Example 148, [4′-(4-chloro-2-methyl-1H-imidazol-1-yl)-3′-[5-(4-chlorophenyl)-1H-1,2,3-triazol-1-yl]-3-fluoro-5-(methylsulfonyl)biphenyl-4-yl]methanol] |
